Measured values reported in US20220119355A1, “SATURATED-RING-FUSED DIHYDROPYRIMIDINONE OR DIHYDROTRIAZINONE COMPOUNDS AND PHARMACEUTICAL USE THEREOF” (Japan Tobacco Inc., priority 2018, published 2022).

Experiments:
[1] = biological target: T1, human RORγ (Homo sapiens, UniProt P51449); assay: In-vitro reporter gene assay for inhibitory activity against RORγ transcription, Test Method A (GAL4-hRORγ LBD / pG5-Luc in CHO cells); assay type: cell-based; details: luciferase reporter, 2 days
T1 construct: from Ser253 to Lys518 for human RORγ; expressed in transfected cells; host or cells: CHO cells (transient co-transfection with pG5-Luc)
T1 sequence (P51449 253-518): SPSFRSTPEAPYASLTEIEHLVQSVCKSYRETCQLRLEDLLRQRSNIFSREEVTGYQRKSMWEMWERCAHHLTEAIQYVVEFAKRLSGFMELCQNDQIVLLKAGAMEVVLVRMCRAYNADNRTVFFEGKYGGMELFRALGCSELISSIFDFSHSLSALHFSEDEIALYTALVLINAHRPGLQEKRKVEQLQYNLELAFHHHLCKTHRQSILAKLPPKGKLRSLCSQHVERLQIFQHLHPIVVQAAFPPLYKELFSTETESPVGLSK
Procedure: (§1) In-Vitro Assay for Inhibitory Activity Against RORγ Transcription
(§2) Inhibitory activity against RORγ transcription was assessed for test compounds by either of the following Test Method A or B of reporter gene assay.
(§3) cDNAs encoding human and mouse RORγ ligand binding domains (LBD) were obtained based on the sequences of human RORγ (Genbank registered number NM_005060.3) and mouse RORγ (Genbank registered number NM_011281.2) (LBD sequences: from Ser253 to Lys518 for human RORγ; from Ile251 to Lys516 for mouse RORγ).
(§4) LBD cDNAs of human and mouse RORγ were inserted into pFA-CMV vector (Stratagene), which expresses GAL4-DNA binding domain fusion protein. The resulting plasmids are hereinafter referred to as GAL4-hRORγ plasmid and GAL4-mRORγ plasmid, respectively.
(§5) GAL4-hRORγ plasmid or GAL4-mRORγ plasmid was transiently co-transfected into Chinese hamster ovary cells (CHO cells) with pG5-Luc (Promega), reporter plasmid expressing firefly luciferase in a GAL4-dependent manner.
(§6) TransIT (Registered trademark) CHO Transfection Kit (Mirus) was used to co-transfect CHO cells with the plasmids. One day prior to the assay, CHO cells were suspended in HAM F-12 Nutrient medium containing 10% (v/v) fetal bovine serum and seeded at 6×10^6 cells per 175 cm^2 cell culture flask each. 54 μL of TransIT (Registered trademark) CHO reagent was added into a 15 mL tube containing 1.16 mL of HAM F-12 Nutrient medium without fetal bovine serum, and then mixed and incubated at room temperature for 10 minutes. 36 μL of a plasmid solution containing 400 ng of GAL4-hRORγ plasmid, 9000 ng of pG5-Luc plasmid, and 8600 ng of pcDNA3 plasmid were added into the tube and mixed gently. In the case of mouse assay, a plasmid solution containing 250 ng of GAL4-mRORγ plasmid, 9000 ng of pG5-Luc plasmid, and 8750 ng of pcDNA3 plasmid was added, instead. The mixture was incubated at room temperature for 10 minutes. 9 μL each of CHO Mojo Reagent were then added into each tube and mixed gently. The mixture was incubated at room temperature for 10 minutes. The resulting transfection reagent was applied to the cell culture. After incubation at 37° C., 5% CO2 for 4 hours, the plasmid-transfected CHO cells were harvested by trypsin treatment. The collected cells were resuspended in culture medium and plated into a 384-well-white plate at 8,000 cells/50 μL/well. The plate was let stand at room temperature for 1 hour and then further incubated at 37° C., 5% CO2 for 3 hours. A test compound was dissolved in DMSO to obtain a concentration of 10 mM. Each solution was serially diluted with DMSO and further diluted with culture medium just before use. The test compound solutions were added. to the cells in the plate at 8 different concentrations. The final concentration of DMSO was 0.2% (v/v). After the addition of test compound, the cells were incubated at […], 5% CO2 for 2 days.
(§7) RORγ transcriptional activity was detected as the intracellular luciferase activity using SteadyLite HTS Reporter Gene Assay System (Perkin Elmer). SteadyLite Reagent was diluted five-fold with Extension buffer (10 mM Tricine, 0.2% (w/v) bovine serum albumin, 0.02% (v/v) Tween-20) to obtain a luciferase substrate solution. After the measurement of the cell viability with Resazurin, the medium was removed in the plate and the luciferase substrate solution was added thereto. After the incubation at room temperature for 10 minutes, luminescence of each well was measured with a microplate reader. The luciferase activity derived from the luminescence count in a vehicle-control well treated with 0.2% DMSO alone was defined as 100%, and the luciferase activity after treatment with the test compound was calculated as a percentage, %-of-control, based on the value of the vehicle-control. An EC50 value of the test compound was calculated by curve fitting with GraphPad Prism. The luminescence counts at the concentration of test compound where cytotoxicity was observed were excluded from data analysis. […]

[2] = biological target: T2, mouse RORγ (Mus musculus, UniProt P51450); assay: In-vitro reporter gene assay for inhibitory activity against RORγ transcription, Test Method A (GAL4-mRORγ LBD / pG5-Luc in CHO cells); assay type: cell-based; details: luciferase reporter, 2 days
T2 construct: from Ile251 to Lys516 for mouse RORγ; expressed in transfected cells; host or cells: CHO cells (transient co-transfection with pG5-Luc)
T2 sequence (P51450 251-516): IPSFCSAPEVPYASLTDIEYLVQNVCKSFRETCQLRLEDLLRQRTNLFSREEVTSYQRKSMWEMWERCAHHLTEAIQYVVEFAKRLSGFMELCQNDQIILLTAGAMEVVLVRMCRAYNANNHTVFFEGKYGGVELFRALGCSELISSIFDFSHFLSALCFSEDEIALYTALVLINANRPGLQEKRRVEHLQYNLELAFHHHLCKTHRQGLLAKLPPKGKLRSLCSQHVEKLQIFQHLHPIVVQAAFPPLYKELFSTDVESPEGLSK
Procedure: as §1, §2, §3, §4, §5, §6, §7

Row | SMILES | EC50 [1] | EC50 [2]
1 | CC(C)(C)CCc1ccc(C23COC(C)(C)C2=CN(CCC(=O)O)C(=O)N3)cc1Cl (single isomer, unassigned) [Example 5] | 0.007 µM | 0.009 µM
2 | CC(C)(C)CCc1ccc(C23COC(C)(C)C2=CN(c2ccc(C(=O)O)cc2)C(=O)N3)cc1Cl (single isomer, unassigned) [Example 7] | 0.009 µM | 0.011 µM
3 | CC(C)(C)CCc1ccc(C23COC(C)(C)C2=CN(c2ccc(C(=O)O)cc2)C(=O)N3)cc1Cl (single isomer, unassigned) [Example 8] | 0.427 µM | 0.381 µM
4 | CC(C)(C)CCc1ccc([C@@]23COC(COCc4ccccc4)C2=CN(CCC(=O)O)C(=O)N3)cc1Cl (single isomer, unassigned) [Example 16] | 0.755 µM | 0.774 µM
5 | CC(C)(C)CCc1ccc([C@]23COC(CO)C2=CN(CCC(=O)O)C(=O)N3)cc1Cl (single isomer, unassigned) [Example 17] | > 20 µM | > 20 µM
6 | COCC1OC[C@@]2(c3ccc(CCC(C)(C)C)c(Cl)c3)NC(=O)N(CCC(=O)O)C=C12 (single isomer, unassigned) [Example 20] | 0.025 µM | 0.025 µM
7 | CC(C)(C)CCc1ccc(C23CCC(CCOCc4ccccc4)C2=CN(CCC(=O)O)C(=O)N3)cc1Cl (single isomer, unassigned) [Example 26] | 0.351 µM | 0.243 µM
8 | CN(C)CCC1CCC2(c3ccc(CCC(C)(C)C)c(Cl)c3)NC(=O)N(CCC(=O)O)C=C12 (single isomer, unassigned) [Example 28] | > 20 µM | > 20 µM
9 | CC(C)(C)CCc1ccc(C23CC(C)(C)CC2=CN(CCC(=O)O)C(=O)N3)cc1Cl (single isomer, unassigned) [Example 32] | 0.021 µM | 0.018 µM
10 | CC(C)(C)CCc1ccc(C23CC(C)(C)CC2=CN(CCC(=O)O)C(=O)N3)cc1Cl (single isomer, unassigned) [Example 33] | 2.96 µM | > 3.2 µM
11 | CC(C)(C)CCc1ccc([C@@]23CCCC(C)(C)C2=CN(CCC(=O)O)C(=O)N3)cc1Cl (single isomer, unassigned) [Example 38] | 0.011 µM | 0.021 µM
12 | CC(C)(C)CCc1ccc([C@]23CCCCC2=CN(CCC(=O)O)C(=O)N3)cc1Cl (single isomer, unassigned) [Example 40] | 4.64 µM | 5.33 µM
13 | COC1CC[C@@]2(c3ccc(CCC(C)(C)C)c(Cl)c3)NC(=O)N(CCC(=O)O)C=C2C1 (single isomer, unassigned) [Example 68] | 0.015 µM | 0.016 µM

Now from value to molecule:

Row | EC50 [1] | EC50 [2] | SMILES
14 | 0.554 µM | 0.714 µM | CC(C)(C)CCc1ccc(C23COC(C)(C)C2=CN(CCC(=O)O)C(=O)N3)cc1Cl (single isomer, unassigned) [Example 6]
15 | 0.819 µM | 1.47 µM | CC(C)(C)CCc1ccc([C@]23CCC(C)(C)C2=CN(c2ccc(C(=O)O)cc2)C(=O)N3)cc1Cl (single isomer, unassigned) [Example 9]
16 | 0.016 µM | 0.03 µM | CC(C)(C)CCc1ccc(C23CCC(C)(C)C2=CN(c2ccc(C(=O)O)cc2)C(=O)N3)cc1Cl (single isomer, unassigned) [Example 10, 4-{7a-[3-Chloro-4-(3,3-dimethyl-butyl)phenyl]-5,5-dimethyl-2-oxo-1,2,5,6,7,7a-hexahydro-cyclopentapyrimidin-3-yl}benzoic acid]
17 | 0.021 µM | 0.022 µM | C[C@@H]1CCC2(c3ccc(CCC(C)(C)C)c(Cl)c3)NC(=O)N(CCC(=O)O)C=C12 (single isomer, unassigned) [Example 11]
18 | 2.58 µM | 3.43 µM | C[C@@H]1CCC2(c3ccc(CCC(C)(C)C)c(Cl)c3)NC(=O)N(CCC(=O)O)C=C12 (single isomer, unassigned) [Example 12]
19 | > 8 µM | > 8 µM | CC(C)(C)CCc1ccc([C@]23COC(COCc4ccccc4)C2=CN(CCC(=O)O)C(=O)N3)cc1Cl (single isomer, unassigned) [Example 15]
20 | 0.773 µM | 0.452 µM | CC(C)(C)CCc1ccc([C@@]23COC(CO)C2=CN(CCC(=O)O)C(=O)N3)cc1Cl (single isomer, unassigned) [Example 18]
21 | 17.1 µM | 15.6 µM | COCC1OC[C@]2(c3ccc(CCC(C)(C)C)c(Cl)c3)NC(=O)N(CCC(=O)O)C=C12 (single isomer, unassigned) [Example 19]
22 | 2.26 µM | 1.27 µM | CC(C)(C)CCc1ccc(C23COC(COC(C)(C)C)C2=CN(CCC(=O)O)C(=O)N3)cc1Cl (single isomer, unassigned) [Example 21]
23 | 16.2 µM | > 8 µM | CC(C)(C)CCc1ccc(C23COC(COC(C)(C)C)C2=CN(CCC(=O)O)C(=O)N3)cc1Cl (single isomer, unassigned) [Example 22]
24 | 0.092 µM | 0.105 µM | CC(C)(C)CCc1ccc(C23CCC(CCO)C2=CN(CCC(=O)O)C(=O)N3)cc1Cl (single isomer, unassigned) [Example 25]
25 | 0.027 µM | 0.039 µM | COCCC1CCC2(c3ccc(CCC(C)(C)C)c(Cl)c3)NC(=O)N(CCC(=O)O)C=C12 (single isomer, unassigned) [Example 27, 3-{7a-[3-Chloro-4-(3,3-dimethyl-butyl)phenyl]-5-(2-methoxy-ethyl)-2-oxo-1,2,5,6,7,7a-hexahydro-cyclopentapyrimidin-3-yl}propionate]
26 | 0.173 µM | 0.103 µM | CC(C)(C)CCc1ccc(C23CCC(CO)C2=CN(CCC(=O)O)C(=O)N3)cc1Cl (single isomer, unassigned) [Example 29]
27 | 3.87 µM | 5.51 µM | CC(C)(C)CCc1ccc([C@]23CCCC(C)(C)C2=CN(CCC(=O)O)C(=O)N3)cc1Cl (single isomer, unassigned) [Example 37]
28 | 0.017 µM | 0.013 µM | CC(C)(C)CCc1ccc([C@@]23CCCCC2=CN(CCC(=O)O)C(=O)N3)cc1Cl (single isomer, unassigned) [Example 41]
29 | 0.024 µM | 0.03 µM | CC1CCC2(c3ccc(CCC(C)(C)C)c(Cl)c3)NC(=O)N(CCC(=O)O)C=C2C1 (single isomer, unassigned) [Example 66]
30 | 4.72 µM | 8.34 µM | COC1CC[C@]2(c3ccc(CCC(C)(C)C)c(Cl)c3)NC(=O)N(CCC(=O)O)C=C2C1 (single isomer, unassigned) [Example 67]
